From patent US12534457B2, “Heteroaryl derivative compounds, and uses thereof” (Voronoi Inc., priority 2021, dated 2026)

What was measured:
[1] = system: Ba/F3 cells expressing EGFR Del19/C797S (EGFR DC); test: Proliferation inhibitory activity, Ba/F3 cells expressing EGFR Del19/C797S (CellTiter-Glo); assay type: cell-based
How it was run: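 Viability after 72 h of compound exposure was measured by luminescence (CellTiter-Glo) in Ba/F3 lines transduced with mutant EGFR. Final concentrations spanned 0.2 nM–5 μM over 12 threefold steps. Growth relative to untreated control gave GI50 values; each test was run three times.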

[2] = system: Ba/F3 cells expressing EGFR L858R/C797S (EGFR LC); test: Proliferation inhibitory activity, Ba/F3 cells expressing EGFR L858R/C797S (CellTiter-Glo); assay type: cell-based; conditions: Mus musculus, BaF3, 72 hours of compound treatment
Method: The following experiments were performed to evaluate the inhibitory activity of the compounds according to the present disclosure on Ba/F3 proliferation expressing EGFR C797S, L861Q, G719A, S768I, L718Q, and/or G724S mutations.
For Ba/F3 cells, RPMI-1640 containing 10% FBS and 5 ng/ml IL-3 (R&D Systems) was used. Transduced Ba/F3 cells were cultured after adding 1 μg/ml puromycin (Invitrogen) to the same medium.
At 24 hours before treatment with the compounds, 3000 to 5000 cells were aliquoted into each well of a white clear bottom 96 well plate (Corning). The compounds were diluted in dimethyl sulfoxide (3 times dilution, 12 concentrations in total), and injected in an amount of 1 μl so that the final concentration was 0.2 nM to 5 uM. For measurement of living cells, after 72 hours of compound treatment, the cells were stored at room temperature for 10 min using CellTiter-Glo luminescentcell-viability reagent (Promega), and then luminescence intensity was measured using a reader (SynergyNeo, Biotek). Each test was repeated three times. Result values were calculated as the cell growth rate (%) compared to the control. The graphs were created using GraphPad Prism version 8.3.0 program and the GI50 values were calculated.

[3] = Mus musculus, BaF3, 72 hours of compound treatment

Row | SMILES | GI50 [1, 3] [nM] | GI50 [2] [nM] | GI50 ([1]; 72 hours of compound treatment) [nM]
1 | CN(C)C1CCN(C2CCN(c3ccc(Nc4cc(N5OCC[C@@H]5c5ccccc5)ncn4)cc3)CC2)CC1 [Example 84, (R)—N,N-dimethyl-1′-(4-((6-(3-phenylisoxazolidin-2-yl)pyrimidin-4-yl)amino)phenyl)-[1,4′-bipiperidin]-4-amine] | < 50 | < 50 | 
2 | CS(=O)(=O)c1cc(Nc2cc(N3OCC[C@@H]3c3cc(F)cc(F)c3)ncn2)cc(N2CCC(N3CCOCC3)CC2)c1 [Example 12, (R)-6-(3-(3,5-difluorophenyl)isoxazolidin-2-yl)-N-(3-(methylsulfonyl)-5-(4-morpholinopiperidin-1-yl)phenyl)pyrimidin-4-amine] | 50 to 500 | 50 to 500 | 
3 | COc1cc(Nc2cc(N3OCC[C@@H]3c3ccccc3)ncn2)ccc1N1CCN(C2CCN(C)CC2)CC1 [Example 102, (R)—N-(3-methoxy-4-(4-(1-methylpiperidin-4-yl)piperazin-1-yl)phenyl)-6-(3-phenylisoxazolidin-2-yl)pyrimidin-4-amine] | < 50 | < 50 | 
4 | COc1cc(N2CCC(N3CCN(C)CC3)CC2)c(Cl)cc1Nc1cc(N2OCC[C@@H]2c2ccccc2)ncn1 [Example 132, (R)—N-(5-chloro-2-methoxy-4-(4-(4-methylpiperazin-1-yl)piperidin-1-yl)phenyl)-6-(3-phenylisoxazolidin-2-yl)pyrimidin-4-amine] | < 50 | < 50 | 
5 | COc1cc(N2CCC(N3CCC(N(C)C)CC3)CC2)c(-c2cnn(C)c2)cc1Nc1cc(N2OCC[C@@H]2c2cc(F)cc(F)c2)ncn1 [Example 10, (R)-1′-(4-((6-(3-(3,5-difluorophenyl)isoxazolidin-2-yl)pyrimidin-4-yl)amino)-5-methoxy-2-(1-methyl-1H-pyrazol-4-yl)phenyl)-N,N-dimethyl-[1,4′-bipiperidin]-4-amine] | 50 to 500 | 50 to 500 | 
6 | COc1cc(N2CCC(N3CCN(C)CC3)CC2)ccc1Nc1cc(N2OCC[C@@H]2c2cncc(F)c2)ncn1 [Example 169, (R)-6-(3-(5-fluoropyridin-3-yl)isoxazolidin-2-yl)-N-(2-methoxy-4-(4-(4-methylpiperazin-1-yl)piperidin-1-yl)phenyl)pyrimidin-4-amine] | 50 to 500 |  | 
7 | COc1cc(N2CCC(N3CC[C@@H](N(C)C)C3)CC2)ccc1Nc1cc(N2OCC[C@@H]2c2cccc(F)c2F)ncn1 [Example 212, 6-((R)-3-(2,3-difluorophenyl)isoxazolidin-2-yl)-N-(4-(4-((R)-3-(dimethylamino)pyrrolidin-1-yl)piperidin-1-yl)-2-methoxyphenyl)pyrimidin-4-amine] | < 50 |  | 
8 | COc1cc(N2CCC(N3CCCN(C)CC3)CC2)ccc1Nc1cc(N2OCC[C@@H]2c2cccc(F)c2F)ncn1 [Example 221] |  |  | < 50
9 | CCC(=O)Nc1cc(Nc2cc(N3OCC[C@@H]3c3ccc(F)cc3F)ncn2)c(OC)cc1N1CCC(N2CCC(N3CCN(C)CC3)CC2)CC1 [Example 87, (R)—N-(5-((6-(3-(2,4-difluorophenyl)isoxazolidin-2-yl)pyrimidin-4-yl)amino)-4-methoxy-2-(4-(4-methylpiperazin-1-yl)-[1,4′-bipiperidin]-1′-yl)phenyl)propionamide] | < 50 |  | 
10 | c1ccc([C@H]2CCON2c2cc(Nc3ccc4c(c3)CC[C@H](N3CCCC3)CC4)ncn2)cc1 [Example 83, 6-((R)-3-phenylisoxazolidin-2-yl)-N—((R)-7-(pyrrolidin-1-yl)-6,7,8,9-tetrahydro-5H-benzo[7]annulen-2-yl)pyrimidin-4-amine] | < 50 |  | 
11 | CN1CCN(c2ccc(Nc3cc(N4OCC[C@@H]4c4cc(F)cc(F)c4)ncn3)cc2)CC1 [Example 18, (R)-6-(3-(3,5-difluorophenyl)isoxazolidin-2-yl)-N-(4-(4-methylpiperazin-1-yl)phenyl)pyrimidin-4-amine] | 50 to 500 |  | 
12 | CN1CCN(c2ccc(Nc3cc(N4OCC[C@@H]4c4ccccc4)ncn3)cc2OCC(F)(F)F)CC1 [Example 139, (R)—N-(4-(4-methylpiperazin-1-yl)-3-(2,2,2-trifluoroethoxy)phenyl)-6-(3-phenylisoxazolidin-2-yl)pyrimidin-4-amine] | < 50 |  | 
13 | CN1CCN(C(=O)c2ccc(Nc3cc(N4OCC[C@@H]4c4ccccc4)ncn3)cc2)CC1 [Example 72, (R)-(4-methylpiperazin-1-yl) (4-((6-(3-phenylisoxazolidin-2-yl)pyrimidin-4-yl)amino)phenyl)methanone] | 50 to 500 |  | 
14 | Cn1cc(-c2cc(Nc3cc(N4OCC[C@@H]4c4ccccc4)ncn3)c(OCC(F)(F)F)cc2N2CCC(N3CCOCC3)CC2)cn1 [Example 165, (R)—N-(5-(1-methyl-1H-pyrazol-4-yl)-4-(4-morpholinopiperidin-1-yl)-2-(2,2,2-trifluoroethoxy)phenyl)-6-(3-phenylisoxazolidin-2-yl)pyrimidin-4-amine] | < 50 |  | 
15 | COc1cc(N2CCC(N3CCN(C)CC3)CC2)ccc1Nc1cc(N2OCC[C@@H]2c2ccccc2)nc(N)n1 [Example 111, (R)—N4-(2-methoxy-4-(4-(4-methylpiperazin-1-yl)piperidin-1-yl)phenyl)-6-(3-phenylisoxazolidin-2-yl)pyrimidin-2,4-diamine] | 50 to 500 |  | 
16 | COc1cc(N2CCOCC2)ccc1Nc1cc(N2OCC[C@@H]2c2ccccc2)ncn1 [Example 110, (R)—N-(2-methoxy-4-morpholinophenyl)-6-(3-phenylisoxazolidin-2-yl)pyrimidin-4-amine] | < 50 |  | 
17 | CN1CCN(c2c(-c3cnn(C)c3)cc(Nc3cc(N4OCC[C@@H]4c4ccccc4)ncn3)c3c2CCO3)CC1 [Example 162, (R)—N-(5-(1-methyl-1H-pyrazol-4-yl)-4-(4-methylpiperazin-1-yl)-2,3-dihydrobenzofuran-7-yl)-6-(3-phenylisoxazolidin-2-yl)pyrimidin-4-amine] | < 50 |  | 

Now from value to compound:

Row | GI50 [1, 3] [nM] | GI50 [2] [nM] | GI50 ([1]; 72 hours of compound treatment) [nM] | SMILES
18 | < 50 | < 50 |  | CN1CCN(c2ccc(Nc3cc(N4OCC[C@@H]4c4ccccc4)ncn3)cc2)CC1 [Example 1, (R)—N-(4-(4-methylpiperazin-1-yl)phenyl)-6-(3-phenylisoxazolidin-2-yl)pyrimidin-4-amine]
19 | < 50 | < 50 |  | COc1cc(N2CCC(N3CCN(C)CC3)CC2)c(-c2cnn(C)c2)cc1Nc1cc(N2OCC[C@@H]2c2cc(F)cc(F)c2)ncn1 [Example 8, (R)-6-(3-(3,5-difluorophenyl)isoxazolidin-2-yl)-N-(2-methoxy-5-(1-methyl-1H-pyrazol-4-yl)-4-(4-(4-methylpiperazin-1-yl)piperidin-1-yl)phenyl)pyrimidin-4-amine]
20 | < 50 | < 50 |  | COc1cc(Nc2cc(N3OCC[C@@H]3c3cccc(F)c3F)ncn2)ccc1N1CCC(N2CCN(C)CC2)CC1 [Example 128, (R)-6-(3-(2,3-difluorophenyl)isoxazolidin-2-yl)-N-(3-methoxy-4-(4-(4-methylpiperazin-1-yl)piperidin-1-yl)phenyl)pyrimidin-4-amine]
21 | < 50 | < 50 |  | Cc1cc(Nc2cc(N3OCC[C@@H]3c3ccc(F)cc3F)ncn2)ccc1N1CCC(N2CCN(C)CC2)CC1 [Example 104, (R)-6-(3-(2,4-difluorophenyl)isoxazolidin-2-yl)-N-(3-methyl-4-(4-(4-methylpiperazin-1-yl)piperidin-1-yl)phenyl)pyrimidin-4-amine]
22 | < 50 | < 50 |  | COc1cc(N2CCC(N3CCN(C)CC3)CC2)ccc1Nc1cc(N2OCC[C@@H]2c2ccc(Cl)c(F)c2)ncn1 [Example 129, (R)-6-(3-(4-chloro-3-fluorophenyl)isoxazolidin-2-yl)-N-(2-methoxy-4-(4-(4-methylpiperazin-1-yl)piperidin-1-yl)phenyl)pyrimidin-4-amine]
23 | < 50 |  |  | CCN1[C@H](C)CN(C2CCN(c3ccc(Nc4cc(N5OCC[C@@H]5c5cccc(F)c5F)ncn4)c(OC)c3)CC2)C[C@@H]1C [Example 215, 6-((R)-3-(2,3-difluorophenyl)isoxazolidin-2-yl)-N-(4-(4-((3S,5R)-4-ethyl-3,5-dimethylpiperazin-1-yl)piperidin-1-yl)-2-methoxyphenyl)pyrimidin-4-amine]
24 | < 50 |  |  | COc1cc(N2CCC(N3CCN(C)CC3)CC2)ccc1Nc1cc(N2OCC3(CC3)[C@@H]2c2ccccc2)ncn1 [Example 233, (S)—N-(2-methoxy-4-(4-(4-methylpiperazin-1-yl)piperidin-1-yl)phenyl)-6-(7-phenyl-5-oxa-6-azaspiro[2.4]heptan-6-yl)pyrimidin-4-amine]
25 | < 50 |  |  | CN1CCN(C2CCN(c3cc(OCC(F)(F)F)c(Nc4cc(N5OCC[C@@H]5c5ccccc5)ncn4)cc3-c3cnn(C)c3)CC2)CC1 [Example 164, (R)—N-(5-(1-methyl-1H-pyrazol-4-yl)-4-(4-(4-methylpiperazin-1-yl)piperidin-1-yl)-2-(2,2,2-trifluoroethoxy)phenyl)-6-(3-phenylisoxazolidin-2-yl)pyrimidin-4-amine]
26 | < 50 |  |  | COc1cc(N2CCC(N3CCN(C)C[C@H]3C)CC2)ccc1Nc1cc(N2OCC[C@@H]2c2cccc(F)c2F)ncn1 [Example 217, 6-((R)-3-(2,3-difluorophenyl)isoxazolidin-2-yl)-N-(4-(4-((R)-2,4-dimethylpiperazin-1-yl)piperidin-1-yl)-2-methoxyphenyl)pyrimidin-4-amine]
